In US20210085640A1, “ACYLATED CATECHIN POLYPHENOLS AND METHODS OF THEIR USE FOR THE TREATMENT OF CANCER” (Flagship Pioneering Innovations V, Inc., priority 2018, published 2021):

Assays:
Assay type in all cases: cell-based
[1] = system: PC-3 prostate cancer cells; assay: Cancer cell survival (CellTiter-Glo), PC-3; conditions: Homo sapiens, PC-3 cells, 72 h
Procedure, shortened: (§1)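 Luminescent ATP read-out (CellTiter-Glo) after 72 h compound exposure at 37 C/5% CO2. Survival % is calculated against untreated cells minus medium background, and IC50 is taken from nine concentrations run in triplicate. Plating density was 4×10^3 cells/well with overnight attachment beforehand.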

MCF7 breast cancer cells = assay: Cancer cell survival (CellTiter-Glo), MCF7; conditions: Homo sapiens, 72 h
Procedure, shortened: as §1

[2] = system: HCT 116 colorectal cancer cells; assay: Cancer cell survival (CellTiter-Glo), HCT 116; conditions: Homo sapiens, HCT 116 cells, 72 h
Procedure, shortened: as §1

A-431 skin cancer cells = assay: Cancer cell survival (CellTiter-Glo), A-431; conditions: Homo sapiens, A-431 cells, 72 h
Procedure, shortened: as §1

[3] = system: Daudi lymphoma cancer cells; assay: Cancer cell survival (CellTiter-Glo), Daudi; conditions: Homo sapiens, 72 h
Procedure, shortened: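 Daudi cells (4×10^3/well) were exposed for 72 h at 37 °C to nine concentrations of compound, added as 10× solutions spanning 1 μM–10 mM (fatty acids) or 100 nM–1 mM (others). CellTiter-Glo luminescence gave % survival versus untreated, medium-blank corrected; IC50 derived.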

AGS stomach cancer cells = assay: Cancer cell survival (CellTiter-Glo), AGS; conditions: 72 h
Procedure, shortened: as §1

T24 bladder cancer cells = assay: Cancer cell survival (CellTiter-Glo), T24; conditions: Homo sapiens
Procedure, shortened: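 Viability by CellTiter-Glo after 72 h compound treatment of T24 bladder cancer cells (4×10^3/well, plated the night before), nine concentration levels in triplicate. Percent survival normalised to untreated cells minus medium background, from which IC50 was determined.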

A549 lung cancer cells = assay: Cancer cell survival (CellTiter-Glo), A549; conditions: Homo sapiens, 72 h
Procedure, shortened: as §1

[4] = 317 μM, read-out: Cell survival at given concentration
[5] = 1 mM, read-out: Cell survival at given concentration
[6] = 3 mM, read-out: Cell survival at given concentration
[7] = 10 mM, read-out: Cell survival at given concentration

Structure (SMILES): CCC(=O)O [propionate]
- viability at 1 µM ([1]; 1 μM, Table 8.2, read-out: Cell survival at given concentration): 100%
- viability at 3 µM ([1]; 3 μM, Table 8.2, read-out: Cell survival at given concentration): 98%
- viability at 10 µM ([1]; 10 μM, Table 8.2, read-out: Cell survival at given concentration): 98%
- viability at 32 µM ([1]; 32 μM, Table 8.2, read-out: Cell survival at given concentration): 101%
- viability at 100 µM ([1]; 100 μM, Table 8.2, read-out: Cell survival at given concentration): 104%
- viability at 317 µM [1, 4]: 98%
- viability at 1000 µM [1, 5]: 94%
- viability at 3000 µM [1, 6]: 84%
- viability at 10000 µM [1, 7]: 66%
- IC50 ([1]; Table 8.2): > 10 mM
- viability at 1 µM (MCF7 breast cancer cells; 1 μM, Table 5.2, read-out: Cell survival at given concentration): 99%
- viability at 3 µM (MCF7 breast cancer cells; 3 μM, Table 5.2, read-out: Cell survival at given concentration): 97%
- viability at 10 µM (MCF7 breast cancer cells; 10 μM, Table 5.2, read-out: Cell survival at given concentration): 103%
- viability at 32 µM (MCF7 breast cancer cells; 32 μM, Table 5.2, read-out: Cell survival at given concentration): 102%
- viability at 100 µM (MCF7 breast cancer cells; 100 μM, Table 5.2, read-out: Cell survival at given concentration): 102%
- viability at 317 µM (MCF7 breast cancer cells; [4]): 94%
- viability at 1000 µM (MCF7 breast cancer cells; [5]): 91%
- viability at 3000 µM (MCF7 breast cancer cells; [6]): 77%
- viability at 10000 µM (MCF7 breast cancer cells; [7]): 51%
- IC50 (MCF7 breast cancer cells; Table 5.2): > 10 mM
- viability at 1 µM ([2]; 1 μM, Table 6.2, read-out: Cell survival at given concentration): 98%
- viability at 3 µM ([2]; 3 μM, Table 6.2, read-out: Cell survival at given concentration): 102%
- viability at 10 µM ([2]; 10 μM, Table 6.2, read-out: Cell survival at given concentration): 103%
- viability at 32 µM ([2]; 32 μM, Table 6.2, read-out: Cell survival at given concentration): 103%
- viability at 100 µM ([2]; 100 μM, Table 6.2, read-out: Cell survival at given concentration): 106%
- viability at 317 µM [2, 4]: 103%
- viability at 1000 µM [2, 5]: 98%
- viability at 3000 µM [2, 6]: 66%
- viability at 10000 µM [2, 7]: 19%
- IC50 ([2]; Table 6.2): 4.38 mM
- viability at 1 µM (A-431 skin cancer cells; 1 μM, Table 9.2, read-out: Cell survival at given concentration): 99%
- viability at 3 µM (A-431 skin cancer cells; 3 μM, Table 9.2, read-out: Cell survival at given concentration): 101%
- viability at 10 µM (A-431 skin cancer cells; 10 μM, Table 9.2, read-out: Cell survival at given concentration): 103%
- viability at 32 µM (A-431 skin cancer cells; 32 μM, Table 9.2, read-out: Cell survival at given concentration): 102%
- viability at 100 µM (A-431 skin cancer cells; 100 μM, Table 9.2, read-out: Cell survival at given concentration): 104%
- viability at 317 µM (A-431 skin cancer cells; [4]): 99%
- viability at 1000 µM (A-431 skin cancer cells; [5]): 98%
- viability at 3000 µM (A-431 skin cancer cells; [6]): 89%
- viability at 10000 µM (A-431 skin cancer cells; [7]): 70%
- IC50 (A-431 skin cancer cells; Table 9.2): > 10 mM
- viability at 1 µM ([3]; 1 μM, Table 4.2, read-out: Cell survival at given concentration): 97%
- viability at 3 µM ([3]; 3 μM, Table 4.2, read-out: Cell survival at given concentration): 97%
- viability at 10 µM ([3]; 10 μM, Table 4.2, read-out: Cell survival at given concentration): 99%
- viability at 32 µM ([3]; 32 μM, Table 4.2, read-out: Cell survival at given concentration): 99%
- viability at 100 µM ([3]; 100 μM, Table 4.2, read-out: Cell survival at given concentration): 101%
- viability at 317 µM [3, 4]: 97%
- viability at 1000 µM [3, 5]: 75%
- viability at 3000 µM [3, 6]: 47%
- viability at 10000 µM [3, 7]: 18%
- IC50 ([3]; Table 4.2): 2.73 mM
- viability at 1 µM (AGS stomach cancer cells; 1 μM, Table 10.2, read-out: Cell survival at given concentration): 102%
- viability at 3 µM (AGS stomach cancer cells; 3 μM, Table 10.2, read-out: Cell survival at given concentration): 98%
- viability at 10 µM (AGS stomach cancer cells; 10 μM, Table 10.2, read-out: Cell survival at given concentration): 103%
- viability at 32 µM (AGS stomach cancer cells; 32 μM, Table 10.2, read-out: Cell survival at given concentration): 101%
- viability at 100 µM (AGS stomach cancer cells; 100 μM, Table 10.2, read-out: Cell survival at given concentration): 104%
- viability at 317 µM (AGS stomach cancer cells; [4]): 101%
- viability at 1000 µM (AGS stomach cancer cells; [5]): 103%
- viability at 3000 µM (AGS stomach cancer cells; [6]): 96%
- viability at 10000 µM (AGS stomach cancer cells; [7]): 70%
- viability at 1 µM (T24 bladder cancer cells; T-24, 1 μM, 72 h, Table 3.2, read-out: Cell survival at given concentration): 99%
- viability at 3 µM (T24 bladder cancer cells; T-24, 3 μM, 72 h, Table 3.2, read-out: Cell survival at given concentration): 97%
- viability at 10 µM (T24 bladder cancer cells; T-24, 10 μM, 72 h, Table 3.2, read-out: Cell survival at given concentration): 97%
- viability at 32 µM (T24 bladder cancer cells; T-24, 32 μM, 72 h, Table 3.2, read-out: Cell survival at given concentration): 99%
- viability at 100 µM (T24 bladder cancer cells; T-24, 100 μM, 72 h, Table 3.2, read-out: Cell survival at given concentration): 97%
- viability at 317 µM (T24 bladder cancer cells; T-24, 317 μM, 72 h, read-out: Cell survival at given concentration): 98%
- viability at 1000 µM (T24 bladder cancer cells; T-24, 1 mM, 72 h, read-out: Cell survival at given concentration): 89%
- viability at 3000 µM (T24 bladder cancer cells; T-24, 3 mM, 72 h, read-out: Cell survival at given concentration): 83%
- viability at 10000 µM (T24 bladder cancer cells; T-24, 10 mM, 72 h, read-out: Cell survival at given concentration): 60%
- IC50 (T24 bladder cancer cells; T-24, 72 h, Table 3.2, read-out: IC50): > 10 mM
- viability at 1 µM (A549 lung cancer cells; 1 μM, Table 7.2, read-out: Cell survival at given concentration): 98%
- viability at 3 µM (A549 lung cancer cells; 3 μM, Table 7.2, read-out: Cell survival at given concentration): 98%
- viability at 10 µM (A549 lung cancer cells; 10 μM, Table 7.2, read-out: Cell survival at given concentration): 102%
- viability at 32 µM (A549 lung cancer cells; 32 μM, Table 7.2, read-out: Cell survival at given concentration): 103%
- viability at 100 µM (A549 lung cancer cells; 100 μM, Table 7.2, read-out: Cell survival at given concentration): 101%
- viability at 317 µM (A549 lung cancer cells; [4]): 104%
- viability at 1000 µM (A549 lung cancer cells; [5]): 104%
- viability at 3000 µM (A549 lung cancer cells; [6]): 94%
- viability at 10000 µM (A549 lung cancer cells; [7]): 65%
